What was measured:
TOV-21G xenografts = assay: TOV-21G xenograft, sActRIIB and 5-FU chemotherapy combination; type: in vivo, human; conditions: nude mice; sActRIIB 10 mg/kg SC 1x/week, 5-FU 50 mg/kg IP 3 cycles, alone or together
Method: TOV-21G xenograft. 5×10^6 TOV-21G ovarian cancer cells were implanted subcutaneously into individual female athymic nu/nu mice (Harlan). Treatment was initiated at day 12 after tumor implantation, when the average tumor volume reached approximately 150 mm^3. The mice received PBS, sActRIIB (30 mg/kg, SC, 1×/week) or activin-A antibody (30 mg/kg, SC, 2×/week). In a separate chemotherapy combination experiment, the mice were treated with PBS, sActRIIB (10 mg/kg, SC, 1×/week), 5-FU (50 mg/kg, IP, 3 cycles, 4 daily injections per cycle) or sActRIIB and 5-FU combination at the same doses above. For all xenograft experiments, the tumor sizes were measured longitudinally by using an electronic caliper. Immediately prior to the 1st dose, the tumor-bearing mice were randomized to ensure even distribution in tumor sizes across different groups. Tumor volumes (mm^3) were calculated as tumor length (mm)×tumor width (mm)×tumor height (mm). Tumor weights were determined by necropsy.

[1] = system: TOV-21G ovarian xenograft tumors; assay: Activin-A antibody and doxorubicin in TOV-21G tumor-bearing nude mice: tumor size and weight; type: in vivo, human; conditions: activin-A antibody 20 mg/kg SC 1x/week, DOX 4 mg/kg IP 1x/week; vs vehicle-treated
Text: (§1) The objective of this study was to examine the effects of pharmacological administration of activin-A antibody, doxorubicin, and activin-A antibody plus doxorubicin, on body weight, tumor growth and muscle mass in nude mice implanted with TOV-21G ovarian xenograft tumors. The activin-A antibody used was the same as described in the Materials section above. Eight-week-old female Athymic nude mice were each injected with 2.2×10^6 TOV-21G cells subcutaneously (SC) into the left site of the lower flank of the mice. On day 12 post tumor implantation, the mice were divided into 4 groups by body weight and tumor size and then treated with vehicle, activin-A antibody, doxorubicin, or the combination of activin-A antibody and doxorubicin. In addition, a group of non-tumor bearing mice was used as normal control and received PBS.
(§2) Mice were weighed weekly. Body weight data were recorded longitudinally. Tumor size was measured longitudinally by using an electronic caliper (Fred V. Fowler Company, Inc.). […] At the end of the study, mice in all groups were subjected to terminal necropsy and lean carcass weight (excluding skin, adipose tissue, internal organs, and head) was determined by using standard anatomical dissection procedures. […] All results were expressed as the mean±SEM. […]

[2] = sActRIIB and doxorubicin in TOV-21G tumor-bearing nude mice: body weight and muscle mass; type: in vivo, mouse
Method: (§3) The objective of the present study was to examine the effect of pharmacological administration of sActRIIB, doxorubicin (dox), and sActRIIB plus doxorubicin, respectively, on body weight, tumor growth and muscle mass in nude mice implanted with TOV-21G ovarian xenograft tumors. Eight-week-old female Athymic nude mice were SC injected with 0.2 mL of 5×10^6 TOV-21G cells into the left site of the lower flank of the mice. After 10 days of tumor implantation, the mice were divided into 4 groups by body weight and tumor size and then treated with vehicle, sActRIIB, doxorubicin or the combination of sActRIIB and doxorubicin. In addition, a group of non-tumor bearing mice was used as normal control and received PBS.
(§4) Mice were weighed weekly. Body weight data were recorded longitudinally. Tumor size was measured longitudinally by using an electronic caliper. The following formula was used to calculate actual tumor volume (Tomayko M and Reynolds C, 1989): (Volume of a rectangular solid tumor: Tumor volume (mm^3)=length (mm)×width (mm)×height (mm) of tumor). At the end of the study, mice in all groups were subjected to terminal necropsy and lean carcass weight (excluding skin, adipose tissue, internal organs, and head) was determined by using standard anatomical dissection procedures. […] All results were expressed as the mean±SEM (standard error of the mean). […]

[3] = system: TOV-21G ovarian xenograft tumors; assay: sActRIIB and doxorubicin in TOV-21G tumor-bearing nude mice: tumor size and weight; type: in vivo, human; conditions: sActRIIB 10 mg/kg SC 1x/week, DOX 2 mg/kg IP 1x/week; 4-week study
Method: as §3, §4

[4] = Activin-A antibody and doxorubicin in TOV-21G tumor-bearing nude mice: body weight and muscle mass; type: in vivo, mouse
Text: as §1, §2

SMILES	rate of tumor growth (TOV-21G xenografts)	tumor size and tumor weight (day 47) / tumor growth [1]	body weight ([2]; TOV-21G tumor-bearing nude mice, sActRIIB 10 mg/kg SC 1x/week, DOX 2 mg/kg IP 1x/week)	lean carcass weight and calf muscle mass ([2]; TOV-21G-implanted nude mice, necropsy at end of 4-week experiment)	tumor size and tumor weight vs vehicle-treated TOV-21G group [3]	body weight ([4]; TOV-21G tumor-bearing nude mice, activin-A antibody 20 mg/kg SC 1x/week, DOX 4 mg/kg IP 1x/week)	lean carcass weight and calf muscle mass ([4]; TOV-21G-implanted nude mice, necropsy at end of 5-week experiment)
O=c1[nH]cc(F)c(=O)[nH]1 [Antibody 5-FU, 5-Fluorouracil, reference compound]	decreased the rate of tumor growth significantly	–	–	–	–	–	–
COc1cccc2c1C(=O)c1c(O)c3c(c(O)c1C2=O)C[C@@](O)(C(=O)CO)C[C@@H]3O[C@H]1C[C@H](N)[C@H](O)[C@H](C)O1 [Doxorubicin, doxorubicin, reference compound]	–	capable of inhibiting TOV-21G tumor growth	further decline (non-statistically significant) in body weight	no effect on the loss of lean carcass weight and calf muscle mass	significantly reduced tumor size and tumor weight	further decline (non-statistically significant) in body weight	no effect on the loss of lean carcass weight and calf muscle mass
